US20250236840A1, “SELECTIVE EXPANSION OF DIFFERENT SUBPOPULATIONS OF T CELLS BY THE ALTERATION OF CELL SURFACING SIGNALS AND SIGNAL RATIO” (LIFE TECHNOLOGIES AS, priority 2015, published 2025)

Tested on: T cells
Assay: Effect of AHR agonist on Th17 polarization (intracellular IL-17 after PMA/Ionomycin)
Format: cell-based, human
Procedure: FIG. 8. T cells were activated with CD3/CD5 (upper) or CD3/ICOS (lower) figure and expanded in presence of standard Th17-polarizing cytokines/antibodies (cytokines package), or with 100 nM FICZ and IL-1B and IL-6. At day 13 cultures were stimulated with PMA/Ionomycin for 4-5 hours before assessment of IL-17A and IL-17F expression. Cytograms show intracellular expression of the cytokines.
Protocol permutation: T cells were activated with DYNABEADS® CD3/CD5, DYNABEADS® CD3/ICOS, or DYNABEADS® CD3/CD28 with equal signal strength and stoichiometry. Th17 polarization was facilitated by addition of i) cytokines (TGF-β, IL-23, IL-6, IL-1B) and αIL-4/α-IFN-γ neutralizing antibodies or ii) the AHR agonist FICZ plus IL-6, IL-1βa. Th17 polarization was assessed by intracellular staining of IL-17 and IFN-γ following PMA/Ionomycin activation of polarized T cells (FIG. 8).

O=Cc1c2c(cc3c1=Nc1ccccc1-3)=Nc1ccccc1-2 [FICZ, 6-formylindolo [3,2-b]carbazole]
Activity on T cells costimulated through CD5 (100 nM FICZ plus IL-1β and IL-6, CD3/CD5 beads, day 13): promising activity
Activity on T cells costimulated through ICOS (100 nM FICZ plus IL-1β and IL-6, CD3/ICOS beads, day 13): not
IL-17 producing cells compared to standard polarizing conditions (FICZ, IL-1β and IL-6 protocol): fewer
